Results from US6849435B2, “Use of VLCFAE for identifying herbicidally active compounds” (Bayer Aktiengesellschaft, priority 2000, dated 2005).
Entries after “also recorded” stand apart in the source; their conditions may differ.

What was measured:
[1] = system: C18:1 fatty acid elongation; details: cited from earlier work
[2] = system: Arabidopsis thaliana; assay: Herbicide treatment of Arabidopsis thaliana with flufenacet: generation of the fiddlehead phenotype; assay type: in vivo, Arabidopsis thaliana (ecotype Columbia Col-0)
Method: Herbicide Treatment of Arabidopsis thaliana With Flufenacet: Generation of the Fiddlehead Phenotype Arabidopsis seeds (ecotype Columbia Col-0), which were stored at 4° C., were sown in soil and cultivated at 22° C.±2° C. under long-day conditions (16 h light/8h dark). Plants 2 weeks old were sprayed with 250 g/ha and 50 g/ha flufenacet and cultivated further at 22° C.±2° C. under long-day conditions (16 h light/8h dark). […] These fusions are very similar to those in the “fiddlehead” mutants.

Row | Structure (SMILES) | inhibition of C18:1 fatty acid elongation [1] | appearance of flowers after recovery ([2]; from day 18 after treatment with 250 g/ha and 50 g/ha) | fusion of the rosette leaves ([2]; in vivo) | fiddlehead phenotype (fusion of flower organs) ([2]; plants 2 weeks old sprayed with 250 g/ha and 50 g/ha, between day 7 and day 11 after treatment)
1 | CN(C)c1cnn(-c2ccccc2)c(=O)c1Cl [BAS 13-338] | inhibit C18:1 fatty acid elongation | – | – | –
2 | CC(C)N(C(=O)COc1nnc(C(F)(F)F)s1)c1ccc(F)cc1 [flufenacet] | – | all the flowers appear normal again | leads to fusion of the rosette leaves | fiddlehead phenotype can be induced; also recorded: the flower organs fuse with the uppermost cauline leaves
